A word on the inhibition: it is the share of the control response that was lost under treatment.

The text below walks through data of patent publication US9962331B2, “Composition containing horse chestnut extract” (priority 2001, dated 2018).

The test has as its system human umbilical vein endothelial cells (HUVECs). As to the kind of experiment: Tube formation assay of HUVEC on Matrigel. Format: cell-based. The note with it: for formation of microvascular network of HUVEC (pictures): FIGS. 6-9; for inhibition at 50 µM: Homo sapiens, read-out: Percent Inhibition. The procedure:
In order to do the tube formation assay, blood vessel endothelial cells, human umbilical vein endothelial cells (HUVECs), were isolated from freshly obtained cords after cesarean section according to Grant's method (Grants D S, et al., Cell, 58, pp933-943, 1989). They were identified by immunocytochemial staining with anti-Factor VIII antibody. HUVECs grown with Matrigel (BD Bioscience, Bedford, Mass., USA), were treated with the above Horse chestnut extract of the Example 1, and further incubated at 37° C. for 8-16 hrs. As a control, above procedure was repeated without Horse chestnut extract.
In order to identify the component responsible for anti-aniogenic acvity of Horse chestnut extract, components identified as in EXAMPLE 2, were subjected to the tube formation assay as described above. Since those chemicals are not soluble in water, they were dissolved in dimethyl sulfoxide (DMSO). In order to exclude the effect of solvent, HUVECs treated with the same amount of DMSO were used as a control. FIG. 5 is a picture of the 1% DMSO-treated HUVEC control, and FIGS. 6-9 are pictures showing the effect of individual components of the Horse chestnut on tube formation. […] Tubular network was disconnected by treatment with 50 μM of quercitrin, and esculetin.
The area of the tube was determined by image analysis program Image-Pro Plus® (Media Cybernetics, USA), and the results were summarized in Tables 1 and 2. […]

The mark [1] stands for this setting: HUVEC, 50 μM, vs 1% DMSO control.
The mark [2] stands for this setting: HUVEC tube formation, 50 μM, vs 1% DMSO control.

Like-named read-outs stand apart in the source and are kept apart here.

For the compound `O=c1ccc2cc(O)c(O)cc2o1` [Esculetin, esculetin], the “formation of microvascular network of HUVEC (pictures)” value (from here on “formation”) (50 μM) is on record as “disconnected”. For the same compound, the “Area of the Tube (%)” value under setting [1] was determined as 17%. Moreover, the inhibition at 50 µM under setting [2] was 83%.
For the compound `O=c1ccc2cc(O[C@@H]3O[C@H](CO)[C@@H](O)[C@H](O)[C@H]3O)c(O)cc2o1` [Esculin, esculin], the “formation” value (50 μM) is listed as “less than that by esculetin”. The “Area of the Tube (%)” value under setting [1] was determined as 85%. For the same compound, where the note is “HUVEC”, the inhibition at 50 µM turned out to be 15%.
`C[C@@H]1O[C@@H](Oc2c(-c3ccc(O)c(O)c3)oc3cc(O)cc(O)c3c2=O)[C@H](O)[C@H](O)[C@H]1O` [Quercitrin, quercitrin]: the “Area of the Tube (%)” value under setting [1] worked out at 36%. Also, the inhibition at 50 µM (HUVEC) is 64%.
For aescin, the “formation” value (50 μM) is “completely inhibited”. Moreover, the “Percent Inhibition” value under setting [2] was 100. For the same compound, the “Area of the Tube (%)” value under setting [1] amounted to 0%.
